Reference: US11254671B2, “Chemical compounds” (GLAXOSMITHKLINE INTELLECTUAL PROPERTY DEVELOPMENT LIMITED, priority 2017, dated 2022)
Values joined by “and” are separate entries in the source; they are usually repeats but may differ in a detail not shown here. Equal entries are not always repeated.

Assays:
mTOR = biological target: T1, mTOR (Homo sapiens, UniProt P42345); experiment: mTOR kinobeads assay (competition-binding assay); details: HuT-78 cell extract, endogenously expressed mTOR, bead-immobilized capturing ligand; mean of multiple experiments; read-out: mean pIC50, affinity for mTOR (converted)
T1 construct: capturing of endogenously expressed target proteins from cell extracts by a bead-immobilized capturing ligand; endogenous in cells; host or cells: HuT-78 cells (ECACC 88041901), cell lysate
Procedure: The affinity of test compounds for mTOR was determined in the mTOR kinobeads assay. This is a competition-binding assay based on the capturing of endogenously expressed target proteins from cell extracts by a bead-immobilized capturing ligand in presence of the test compound.
HuT-78 cells (European Collection of Authenticated Cell Cultures, 88041901) were cultured according to vendor's instructions. Frozen cell pellets were homogenized in 3× pellet volumes lysis buffer (50 mM Tris-HCl, 0.4% (v/v) Igepal-CA630, 5% glycerol, 150 mM NaCl, 1.5 mMMgCl2, 25 mM NaF, 1 mM sodium vanadate, 1 mM DTT, pH 7.5, supplemented with EDTA-free protease inhibitor tablet (Roche)). The sample was dispersed using a Dounce homogenizer, kept rotating for 30 min at 4° C., and centrifuged for 10 min at 20 000 g at 4° C. The supernatant was centrifuged again for 1 h at 145 000 g. The protein concentration was determined by Bradford assay (BioRad), aliquots were snap frozen in liquid nitrogen and stored at −80° C.
The capturing matrices were generated by derivatizing N-hydroxysuccinimide (NHS) activated Sepharose 4 beads (GE Healthcare) with the functionalized ligands Compound A and Compound C at a ligand density of 5 mM. Remaining NHS-groups were blocked with ethanolamine.
For the mTOR kinobeads assay the matrices were combined in a 1:1 ratio and equilibrated in DP buffer (50 mM Tris-HCl (pH 7.5), 0.4% (v/v) Igepal-CA630, 5% (v/v) glycerol, 150 mM NaCl, 1.5 mM MgCl2, 25 mM NaF, 1 mM Na3VO4, 1 mM dithiothreitol). All steps of the mTOR kinobeads assay were performed at 4° C. or on ice. The cell lysate was diluted with DP buffer to a final concentration of 5 mg/ml and a final detergent concentration of 0.4% (v/v) Igepal-CA630. For the assay 250 μg cell lysate and 2.5 μl capturing matrix per well (final assay volume: 75 μl) were incubated in the presence of test compounds in a 384-well filter plate (MultiScreenHTS HV Filter Plate, 0.45 μm, MZHVNOW50, Merck Millipore). Each plate contained 16 positive (100 μM Compound B) and 16 negative (2% v/v DMSO) control wells. Compounds were tested in a concentration-response applying 1:3 or 1:4 dilution steps for in total 11 data points. DMSO concentration was 2% (v/v). After 2 h incubation on an overhead shaker (Roto-Shake Genie, Scientific Industries Inc.) at 4° C. the non-bound fraction was removed by washing the beads with DP buffer. Proteins retained on the beads were eluted in SDS sample buffer (200 mM Tris (pH 7.4), 250 mM Trizma Base, 4% (w/v) SDS, 20% (v/v) glycerol, 0.01% (w/v) bromophenol blue, 50 mM dithiothreitol) into a collection plate (384 well polypropylene microplate, V-shape, Greiner, 781 280). Eluates were spotted on nitrocellulose membranes (400 nl per spot) using an automated pin-tool liquid transfer (Biomek FX, Beckman). After drying, the membranes were rehydrated in 20% (v/v) ethanol and blocked by incubation with Odyssey blocking buffer (LICOR, 927-40000) for 1 h at room temperature. Blocked membranes were incubated overnight at 25° C. with Odyssey blocking buffer supplemented with a specific anti-mTOR antibody (Cell Signaling, 2972; 1:500) and 0.4% TWEEN-20. Then the membranes were washed in PBST buffer and incubated for 60 minutes at room temperature with the detection antibody (IRDye™ labelled antibody from LI-COR) diluted in Odyssey blocking buffer (LICOR 927-40000) containing 0.2% TWEEN-20. Then the membranes were washed with PBST and finally rinsed twice with PBS buffer to remove residual Tween-20. The membranes were then scanned with the Odyssey® Infrared Imaging System (LI-COR Biosciences). Fluorescence signals were recorded and analyzed according to the instructions of the manufacturer. Concentration response curves were computed with the software Activity Base. All data were normalized to the mean of 16 high (negative control) and 16 low (positive control) control wells on each plate. […]

[1] = system: phosphorylated Akt at serine 473 (pAKTs473) in primary human lung fibroblasts; experiment: Highthroughput phosphorylated Akt (Ser473) in vitro immunoassay (MSD); assay type: cell-based; details: Fibroblast, 1 h compound, PDGF-BB 10 ng/ml for 10 min, mean of multiple experiments, read-out: mean pIC50, inhibition of pAkt (Ser473) (converted)
From the text: Highthroughput Phosphorylated Akt (Ser473) In Vitro Immunoassay
Immunoassay to measure effect of test compounds on phosphorylated Akt at serine 473 (pAKTs473) in primary human lung fibroblasts (Lonza Group Ltd, Basel, Switzerland, Catalogue No. CC-2512) using the MesoScale Discovery (MSD) platform to quantify levels of total Akt and pAKTser473.
Human lung fibroblasts were routinely maintained in fibroblast basal medium supplemented with 2% foetal bovine serum (FBS), 0.1% human fibroblast growth factor (FGF)-B, 0.1% insulin, 0.1% GA-100 (Lonza Group Ltd, Basel, Switzerland, Catalogue No. CC-3132) at 37° C. in 5% CO2 according to the manufacturer's protocol.
For the assay, cells were harvested using Trypsin/EDTA, (Lonza Group Ltd, Basel, Switzerland, Catalogue No. CC-5012), at working concentration of 0.025%, resuspended to give 3×10^5 cells/ml and 50 ul/well seeded into 384-well plates (Greiner Group, Kremsmunster, Austria, Catalogue No. 781091) in media containing 0.4% FBS and incubated o/n at 37° C. in 5% CO2.
Test compounds were dissolved in 100% DMSO to give 10 mM stock solutions and serially diluted to generate an 11-point concentration response curve. Compound were further diluted by […] into 384-well V-bottom polypropylene plates (Greiner Group, Kremsmunster, Austria, Catalogue No. 781280) with media containing 0.4% FBS to give 50 μM top compound concentration in 0.5% DMSO.
Compounds were transferred to 384-well plates contacting cells (0.1% DMSO final) and incubated for 1 h at 37° C. in 5% CO2, prior to stimulation with platelet-derived growth factor (PDGF)-BB (R&D Systems, Catalogue No. 220-BB) at 10 ng/ml (final) for 10 min at RT. Cell assay plates were incubated on ice and treated with lysis buffer (Cell Signalling Technology, Catalogue No. 9806) containing protease and phosphatase inhibitors (Thermo Scientific, Catalogue No. 78444) followed by shaking for 30 min at 4° C.
MSD plates (MSD, MA6000 384-well GAR plate, Catalogue No. L21RA-2) were blocked with blocking buffer containing TBS (MSD, Cat. No. R61TX-1) with 0.5% bovine serum albumin (BSA) (Sigma Aldrich, Cat. No. A7906), 0.1% tween-20 (Sigma Aldrich, Catalogue No. P2287) and coated with rabbit-anti-human pAkt (s473) ab (Cell Signalling Technology, Catalogue No. CST #4060) at RT with shaking, followed by washing (×3) with 1×TBS wash reagent containing 0.1% Tween-20. Cell lysates (30 ul) were added and MSD plates centrifuged at 1000 rpm at 4° C. o/n.
Plates were washed with 1×TBS wash buffer (×3), prior to addition of mouse-anti-human-total Akt ab (1 mg/ml) (Upstate (Milipore), Catalogue No. 05-591) in blocking buffer and shaken at RT for 1 h. After washing with 1×TBS wash buffer (×3), plates were incubated with goat-anti-mouse SULFO-TAG detection ab (MSD, Catalogue No. R32AC-1) (1:500 in blocking buffer) for 1 h at RT. Plates were washed with 1×TBS (×3) and read buffer (2×) (MSD, Catalogue No. R92TC-1) added before detecting electrochemiluminescence (MSD Sector Imager 6000).
Data analysis was performed by determining % inhibition values for test compounds relative to the minimum (+PDGF-BB stimulation) and maximum responses (no PDGF-BB stimulation) with non-linear regression analysis to determine IC50 values for test compounds.

Row | IC50 (mTOR) | SMILES | IC50 [1] [nM]
1 | 2.51 to 31.6 nM and 15.8 nM and 2.51 to 316 nM | CC[C@H]1COCCN1c1cc(C(C)(C)S(C)(=O)=O)cc(-c2ccc3[nH]c(CNC)cc3n2)n1 [Example 1, [(5-{6-[(3S)-3-ethylmorpholin-4-yl]-4-(2-methanesulfonylpropan-2-yl)pyridin-2-yl}-1H-pyrrolo[3,2-b]pyridin-2-yl)methyl](methyl)amine] | 
2 | 2.51 to 31.6 nM and 7.94 nM and 2.51 to 316 nM | CC[C@H]1COCCN1c1cc(C2(S(C)(=O)=O)CCOCC2)cc(-c2ccc3[nH]c(CNC)cc3n2)n1 [Example 15, (S)-1-(5-(6-(3-ethylmorpholino)-4-(4-(methylsulfonyl)tetrahydro-2H-pyran-4-yl)pyridin-2-yl)-1H-pyrrolo[3,2-b]pyridin-2-yl)-N-methylmethanamine] | 2.51 to 10
3 | 2.51 to 316 nM | CNCc1cc2nc(-c3cc(CS(C)(=O)=O)cc(N4CCOC[C@H]4C)n3)ccc2[nH]1 [Example 26, ({5-[4-(methanesulfonylmethyl)-6-[(3R)-3-methylmorpholin-4-yl]pyridin-2-yl]-1H-pyrrolo[3,2-b]pyridin-2-yl}methyl)(methyl)amine] | 3.16 to 316
4 | 2.51 to 31.6 nM and 2.51 to 316 nM | CC[C@H]1COCCN1c1cc(C2(S(C)(=O)=O)CCNCC2)cc(-c2ccc3[nH]c(CO)cc3n2)n1 [Example 36] | 3.16 to 316
5 | 2.51 to 316 nM | CC[C@H]1COCCN1c1cc(CS(C)(=O)=O)cc(-c2ccc3[nH]c(CN(C)CC)cc3n2)n1 [Example 14, (S)—N-((5-(6-(3-ethylmorpholino)-4-((methylsulfonyl)-methyl)pyridin-2-yl)-1H-pyrrolo[3,2-b]pyridin-2-yl)-methyl)-N-methylethanamine] | 3.16 to 316
6 | 2.51 to 316 nM | CC[C@H]1COCCN1c1cc(C2(S(C)(=O)=O)CCOCC2)cc(-c2ccc3[nH]c(CN(C)CC)cc3n2)n1 [Example 16, (S)—N-((5-(6-(3-ethylmorpholino)-4-(4-(methylsulfonyl)tetrahydro-2H-pyran-4-yl)pyridin-2-yl)-1H-pyrrolo[3,2-b]pyridin-2-yl)methyl)-N-methylethanamine] | 3.16 to 316
7 | 2.51 to 31.6 nM and 2.51 to 316 nM | CC[C@H]1COCCN1c1cc(C2(S(C)(=O)=O)CCNCC2)cc(-c2ccc3[nH]c(CNC)cc3n2)n1 [Example 24, [(5-{6-[(3S)-3-ethylmorpholin-4-yl]-4-(4-methanesulfonylpiperidin-4-yl)pyridin-2-yl}-1H-pyrrolo[3,2-b]pyridin-2-yl)methyl](methyl)amine] | 3.16 to 316
8 |  | CC[C@H]1COCCN1c1cc(C2(S(N)(=O)=O)CCOCC2)cc(-c2ccc3[nH]c(CNC)cc3n2)n1 [Example 27, 4-{2-[(3S)-3-ethylmorpholin-4-yl]-6-{2-[(methylamino)methyl]-1H-pyrrolo[3,2-b]pyridin-5-yl}pyridin-4-yl}oxane-4-sulfonamide] | 3.16 to 316
9 | 2.51 to 316 nM | CNCc1cc2nc(-c3cc(CS(C)(=O)=O)cc(N4CCCOCC4)n3)ccc2[nH]1 [Example 45, ({5-[4-(methanesulfonylmethyl)-6-(1,4-oxazepan-4-yl)pyridin-2-yl]-1H-pyrrolo[3,2-b]pyridin-2-yl}methyl)(methyl)amine] | 
10 | 2.51 to 316 nM | CNCc1cc2nc(-c3cc(CS(C)(=O)=O)cc(N4CCOCC4)n3)ccc2[nH]1 [Example 46, ({5-[4-(methanesulfonylmethyl)-6-(morpholin-4-yl)pyridin-2-yl]-1H-pyrrolo[3,2-b]pyridin-2-yl}methyl)(methyl)amine] | 
11 | 2.51 to 31.6 nM and 2.51 to 316 nM | CC[C@H]1COCCN1c1cc(CS(N)(=O)=O)cc(-c2ccc3[nH]c(CNC)cc3n2)n1 [Example 29, {2-[(3S)-3-ethylmorpholin-4-yl]-6-{2-[(methylamino)methyl]-1H-pyrrolo[3,2-b]pyridin-5-yl}pyridin-4-yl}methanesulfonamide] | 3.16 to 316
12 | 2.51 to 31.6 nM and 2.51 to 316 nM | CNCc1cc2nc(-c3cc(C4(S(C)(=O)=O)CCOCC4)cc(N4CC5CCC(C4)O5)n3)ccc2[nH]1 [Example 37, ({5-[4-(4-methanesulfonyloxan-4-yl)-6-{8-oxa-3-azabicyclo[3.2.1]octan-3-yl}pyridin-2-yl]-1H-pyrrolo[3,2-b]pyridin-2-yl}methyl)(methyl)amine] | 3.16 to 316
13 | 2.51 to 316 nM | CC[C@H]1COCCN1c1cc(C2(S(C)(=O)=O)CCN(C(C)=O)CC2)cc(-c2ccc3[nH]c(CNC)cc3n2)n1 [Example 39, 1-(4-{2-[(3S)-3-ethylmorpholin-4-yl]-6-{2-[(methylamino)methyl]-1H-pyrrolo[3,2-b]pyridin-5-yl}pyridin-4-yl}-4-methanesulfonylpiperidin-1-yl)ethan-1-one] | 
